A short description of assay [1]: Inhibition of CK1.
Assay [2] is described as follows: Inhibition of CK2.
Assay [3] has as its target Dual specificity tyrosine-phosphorylation-regulated kinase 1A (Homo sapiens, UniProt Q13627). Description: Inhibition of DYRK1a.
A further assay deals with T1, Aurora kinase A (Homo sapiens, UniProt O14965).
T1 sequence (O14965 whole entry): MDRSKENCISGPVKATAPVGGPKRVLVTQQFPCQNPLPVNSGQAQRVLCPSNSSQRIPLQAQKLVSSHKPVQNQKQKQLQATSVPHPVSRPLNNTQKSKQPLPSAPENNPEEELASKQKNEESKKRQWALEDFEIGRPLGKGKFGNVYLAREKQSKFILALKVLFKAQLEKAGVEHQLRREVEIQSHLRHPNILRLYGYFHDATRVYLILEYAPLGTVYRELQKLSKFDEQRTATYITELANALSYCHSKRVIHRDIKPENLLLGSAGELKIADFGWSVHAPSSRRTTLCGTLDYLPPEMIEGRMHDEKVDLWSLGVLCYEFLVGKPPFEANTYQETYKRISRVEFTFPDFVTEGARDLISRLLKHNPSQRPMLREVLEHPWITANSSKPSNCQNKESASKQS
Put plainly: Inhibition of Aurora A.

Assay [4] can be described thus: Inhibition of PKA.

A value given as a limit tells only on which side of the number the result lay.

Turning to `Cc1ccc(S(=O)(=O)Oc2ccc3ccc(O)cc3c2)cc1`, the concentration for half-maximal inhibition (IC50) in assay [1] and in assay [2] was over 40 µM throughout.
Consider `CC1c2cc(Br)c(O)c(Br)c2OC(=O)C1Br` (stereo unspecified), for which the figures for the IC50 in assay [1] and in assay [2] were over 40 µM and 2 µM, respectively.
Taken in the same sequence, the figures for `O=C1NC(=O)C(=Cc2ccc(O)cc2O)C(=O)N1` were over 40 µM and over 40 µM.
As for `O=C1C=C(c2ccc(O)c(O)c2O)C(=O)c2c(O)ccc(O)c21`, the 50% inhibitory concentration (IC50) is over 40 µM in assay [1], 3.5 µM in assay [2], 21.4 µM in assay [3] and 6.2 µM at Aurora kinase A.
For the molecule `C[N+]1(Cc2cc(O)c3c(c2)C(=O)c2cccc(O)c2C3=O)CCOCC1`, the values for the IC50 in assay [1] and in assay [2] were 10 µM and over 40 µM, respectively.
Regarding `C[N+](C)(C)CC(=O)OCc1cc(O)c2c(c1)C(=O)c1cccc(O)c1C2=O`, the IC50 in assay [1] and in assay [2] was over 40 µM each time.
Consider `CCN(CC)CCC(=O)Nc1ccc(O)c2c1C(=O)c1cccc(O)c1C2=O`, for which the half-maximal inhibitory concentration (IC50) in assay [1] and in assay [2] was over 40 µM throughout.
Consider `O=C1C=C(c2ccc(O)c(O)c2O)C(=O)c2c1cccc2[N+](=O)[O-]`, for which the IC50 in assay [1] is over 40 µM; in assay [2], 23 µM; in assay [4], 14 µM; on Aurora kinase A it was 4.8 µM.
As to `O=c1ccc2cc(S(=O)(=O)N3CCNCC3)cc(Cl)c2o1`, the half-maximal inhibitory concentration (IC50) in assay [1] and in assay [2] was over 40 µM in each case.
As for `Cc1coc2cc3oc(=O)c(NC(=O)CN)cc3cc12`, the IC50 in assay [1] and in assay [2] was over 40 µM in each case.
On to `CN(C)c1ccc(C=C2C(=O)NC(=O)NC2=O)cc1`, for which the IC50 in assay [1] and in assay [2] was over 40 µM in each case.

The term IC50 denotes the midpoint of a concentration-inhibition curve. A lower IC50 goes with higher potency.

Source of the values: ChEMBL document CHEMBL1759841, “8-Hydroxynaphthalene-1,4-dione derivative as novel compound for glioma treatment” (Bioorg Med Chem Lett, 2011).
